For 14 molecules, TGI results are on record in PubChem BioAssay (NCI).

Among the test systems are 786-0 renal; COLO 205 colon; EKVX NSCLC; HCT-116 colon; HOP-62 NSCLC; HT29 colon; K-562 leukemia; M14 melanoma; MALME-3M melanoma; MDA-N; OVCAR-3 ovarian; RXF 393 renal; SF-268 CNS; SK-MEL-28 melanoma; SW-620 colon; U251 CNS; SF-539 CNS.
Common to all, as to test: NCI-60 cell line screen, 48 h

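Grown in 96-well plates, cells were treated for 48 hours with each compound at five concentrations. Insufficient inhibition: endpoint recorded as highest concentration tested. TGI: concentration producing complete growth inhibition.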 Where a SMILES comes first, the peptide text is derived from it. The star is where a group is joined. Cbz = O=C(OCc1ccccc1)*; Boc = CC(C)(C)OC(=O)*; Bn = c1ccc(C*)cc1 Bounds are passed on as bounds.

Turning to `CN(C)CCCNc1ncnc2nc[nH]c12`, the TGI with 786-0 renal, in the assay on COLO 205 colon, in the assay on EKVX NSCLC, in the assay with HCT-116 colon, in the assay on HOP-62 NSCLC and in the assay with HT29 colon was more than 100 µM throughout. The TGI with K-562 leukemia, with M14 melanoma, with MALME-3M melanoma, in the assay with MDA-N, in the assay with OVCAR-3 ovarian and with RXF 393 renal was more than 100 µM throughout. For the same molecule, the TGI with SF-268 CNS, with SK-MEL-28 melanoma, in the assay on SW-620 colon and in the assay on U251 CNS was more than 100 µM throughout.
Turning to `C#CCOCn1ccc(=O)[nH]c1=O`, the TGI in the assay with 786-0 renal, in the assay on COLO 205 colon, in the assay on EKVX NSCLC, with HCT-116 colon, in the assay on HOP-62 NSCLC and in the assay on HT29 colon was more than 100 µM in each case. Also, the TGI in the assay with K-562 leukemia, with M14 melanoma, in the assay with MALME-3M melanoma, in the assay on MDA-N, with SF-268 CNS and in the assay on SF-539 CNS was more than 100 µM in each case. Further, the TGI in the assay with SK-MEL-28 melanoma, in the assay on SW-620 colon and in the assay on U251 CNS was more than 100 µM in each case.
In the case of `N=C(N)C(N=Nc1ccccc1)C(N)=O` (centres undefined), the TGI in the assay on 786-0 renal, in the assay on COLO 205 colon, in the assay on EKVX NSCLC, in the assay with HCT-116 colon, with HOP-62 NSCLC and with HT29 colon was more than 100 µM in each case. For the same molecule, the TGI in the assay on K-562 leukemia, with M14 melanoma, in the assay on MALME-3M melanoma, in the assay on MDA-N, with OVCAR-3 ovarian and with RXF 393 renal was more than 100 µM in each case. Also, the TGI in the assay on SF-268 CNS, in the assay with SK-MEL-28 melanoma, with SW-620 colon and in the assay on U251 CNS was more than 100 µM throughout.
For `CC(C)(C)OC(=O)NC(Cc1ccc(OCc2ccccc2)cc1)C(=O)NC(CCCCNC(=O)OCc1ccccc1)C(=O)O` (centres undefined) (Boc-Tyr(Bn)-Lys(Cbz)-OH; configuration not given here), the TGI with 786-0 renal, in the assay with COLO 205 colon, in the assay on EKVX NSCLC, in the assay on HCT-116 colon, in the assay on HOP-62 NSCLC and in the assay on HT29 colon was more than 100 µM in each case. Besides, the TGI in the assay with K-562 leukemia was more than 100 µM; with M14 melanoma, more than 100 µM; in the assay with MALME-3M melanoma it was more than 100 µM; in the assay with MDA-N, more than 100 µM; in the assay on RXF 393 renal, more than 100 µM; in the assay with SK-MEL-28 melanoma it was 44.2 µM. The TGI in the assay on SW-620 colon and in the assay on U251 CNS was more than 100 µM throughout.
For the molecule `COc1ccc(C(=O)/C=C/c2ccc(OCCSCCCCCCCCCCSCCOc3ccc(/C=C/C(=O)c4ccc(OC)cc4)cc3)cc2)cc1`, the TGI in the assay with 786-0 renal, in the assay with COLO 205 colon, in the assay with EKVX NSCLC, with HCT-116 colon, in the assay on HOP-62 NSCLC and in the assay with HT29 colon was more than 100 µM each time. In addition, the TGI with K-562 leukemia, with M14 melanoma, in the assay on MDA-N, in the assay with RXF 393 renal, in the assay with SF-268 CNS and in the assay with SF-539 CNS was more than 100 µM in each case. For the same molecule, the TGI in the assay on SK-MEL-28 melanoma, in the assay with SW-620 colon and in the assay on U251 CNS was more than 100 µM throughout.
In the case of `CCCc1c(O)c(=O)c2c(OC)cc(OC)c3c4c(OC)cc(OC)c5c(=O)c(O)c(CCC)c(c1c23)c54`, the TGI came out at 9.59 µM in the assay with 786-0 renal; 8.94 µM with COLO 205 colon; 6.66 µM in the assay with EKVX NSCLC; 1.23 µM in the assay on HCT-116 colon; 8.11 µM with HOP-62 NSCLC; 6.75 µM in the assay with HT29 colon. For the same molecule, the TGI in the assay on K-562 leukemia is 0.589 µM; in the assay on M14 melanoma, 8.65 µM; in the assay with MDA-N, 12.2 µM; with OVCAR-3 ovarian, more than 27.7 µM; in the assay with RXF 393 renal it was 28 µM; in the assay on SF-268 CNS it was 19.5 µM. Moreover, the TGI in the assay with SF-539 CNS amounted to 11.3 µM; in the assay with SK-MEL-28 melanoma it was 19.1 µM; in the assay on SW-620 colon, 12.2 µM; in the assay with U251 CNS, 11.3 µM.
On to `O=C(O)CSCC(=O)O`, for which the TGI in the assay on 786-0 renal, in the assay on EKVX NSCLC, in the assay with HCT-116 colon, with HOP-62 NSCLC, with HT29 colon and in the assay on K-562 leukemia was more than 100 µM each time. Also, the TGI in the assay with M14 melanoma, in the assay with MALME-3M melanoma, in the assay with MDA-N, in the assay on OVCAR-3 ovarian, in the assay on RXF 393 renal and in the assay with SF-268 CNS was more than 100 µM each time. Also, the TGI in the assay with SK-MEL-28 melanoma, in the assay on SW-620 colon and in the assay with U251 CNS was more than 100 µM throughout.
With `COC(=O)C1CC=C(SC(=O)c2ccccc2)N1C(=O)c1ccccc1` (centres undefined), the TGI in the assay on 786-0 renal, in the assay on COLO 205 colon, in the assay with EKVX NSCLC, with HCT-116 colon, in the assay on HOP-62 NSCLC and with HT29 colon was more than 100 µM throughout. Also, the TGI with K-562 leukemia, in the assay with M14 melanoma, in the assay with MALME-3M melanoma, in the assay with MDA-N, with OVCAR-3 ovarian and in the assay with RXF 393 renal was more than 100 µM each time. In addition, the TGI in the assay on SF-268 CNS, with SK-MEL-28 melanoma, with SW-620 colon and with U251 CNS was more than 100 µM in each case.
On to `N#CCC(=O)c1cc(OCc2cc(OCc3ccc(Br)cc3)cc(OCc3ccc(Br)cc3)c2)cc(OCc2cc(OCc3ccc(Br)cc3)cc(OCc3ccc(Br)cc3)c2)c1`, for which the TGI in the assay with 786-0 renal, in the assay with COLO 205 colon, in the assay on EKVX NSCLC, with HCT-116 colon, with HOP-62 NSCLC and with K-562 leukemia was more than 100 µM each time. Also, the TGI in the assay with M14 melanoma, in the assay on MALME-3M melanoma, with MDA-N, with OVCAR-3 ovarian, in the assay with SF-268 CNS and in the assay with SK-MEL-28 melanoma was more than 100 µM in each case. This molecule yielded a TGI in the assay with U251 CNS of more than 100 µM.
As to `COC(=O)C12OC(C)(C(CC(=O)OC(C)(C)C)C1=O)C1C(=O)N(c3ccccc3)C(=O)C12` (centres undefined), the TGI with 786-0 renal, with COLO 205 colon, in the assay with HCT-116 colon, in the assay with HOP-62 NSCLC, in the assay on HT29 colon and with K-562 leukemia was more than 100 µM in each case. Besides, the TGI with M14 melanoma, with MALME-3M melanoma, with MDA-N, with OVCAR-3 ovarian, in the assay on RXF 393 renal and in the assay with SF-268 CNS was more than 100 µM throughout. Besides, the TGI with SK-MEL-28 melanoma, with SW-620 colon and in the assay with U251 CNS was more than 100 µM each time.
For the molecule `CCCCNc1c(CN)cnc2cc(Cl)ccc12`, the TGI is 40.2 µM in the assay with 786-0 renal; 21.5 µM in the assay with COLO 205 colon; 17.1 µM in the assay on EKVX NSCLC; 35.9 µM with HCT-116 colon; 35.4 µM with HOP-62 NSCLC; 37 µM in the assay with HT29 colon. Also, the TGI stood at 32.1 µM with K-562 leukemia; 36.6 µM in the assay on M14 melanoma; 34 µM in the assay with MALME-3M melanoma; 39.3 µM in the assay on MDA-N; 32.3 µM in the assay on OVCAR-3 ovarian; 29.5 µM in the assay with RXF 393 renal. In addition, the TGI in the assay with SF-268 CNS was determined as 57.6 µM; with SK-MEL-28 melanoma, 30 µM; in the assay on SW-620 colon, 33.5 µM; in the assay on U251 CNS it was 30.4 µM.
In the case of `NC1CC(N)c2c(Br)sc(Br)c21` (centres undefined), the TGI in the assay with 786-0 renal, in the assay on COLO 205 colon, with EKVX NSCLC, in the assay with HCT-116 colon, in the assay on HOP-62 NSCLC and in the assay on HT29 colon was more than 100 µM in each case. The TGI with K-562 leukemia, in the assay with M14 melanoma, in the assay with MALME-3M melanoma, in the assay on MDA-N, in the assay with OVCAR-3 ovarian and with SF-268 CNS was more than 100 µM each time. For the same molecule, the TGI in the assay on SF-539 CNS, with SK-MEL-28 melanoma, with SW-620 colon and in the assay with U251 CNS was more than 100 µM throughout.
Take `Cc1ccccc1NC(=O)C(=O)CC(=O)c1sc(Nc2ccccc2[N+](=O)[O-])nc1C`: the TGI in the assay with 786-0 renal was 48.3 µM; in the assay with COLO 205 colon, more than 100 µM; in the assay with EKVX NSCLC, more than 100 µM; with HCT-116 colon, more than 100 µM; in the assay with HOP-62 NSCLC it was 58.1 µM; in the assay on HT29 colon it was more than 100 µM. The TGI was more than 100 µM in the assay on K-562 leukemia; more than 100 µM in the assay on M14 melanoma; more than 100 µM in the assay with MDA-N; 79.5 µM in the assay on OVCAR-3 ovarian; 89.1 µM with RXF 393 renal; more than 100 µM in the assay on SF-268 CNS. In addition, the TGI with SF-539 CNS was 91 µM; with SK-MEL-28 melanoma, 82.8 µM; in the assay with SW-620 colon, more than 100 µM; in the assay on U251 CNS, more than 100 µM.
For the molecule `NC1=NNC2(C(=O)N1)c1ccccc1-c1ccccc12`, the TGI in the assay with 786-0 renal, with COLO 205 colon, with HCT-116 colon, in the assay with HOP-62 NSCLC, with K-562 leukemia and with M14 melanoma was more than 10 µM each time. Besides, the TGI in the assay with MALME-3M melanoma, with MDA-N, with OVCAR-3 ovarian, with RXF 393 renal, in the assay on SF-268 CNS and in the assay with SF-539 CNS was more than 10 µM in each case. Besides, the TGI with SK-MEL-28 melanoma, with SW-620 colon and with U251 CNS was more than 10 µM each time.
